According to BigSolDB 2.1:

Cl.Cl.Fc1ccc(C(c2ccc(F)cc2)N2CCN(C/C=C/c3ccccc3)CC2)cc1
solubility (mole fraction)
Details	in acetone	in acetonitrile	in ethanol	in ethyl acetate	in isobutanol	in isopropanol	in methanol	in methyl acetate	in n-butanol	in n-propanol
293.15 K	0.00271	0.00219	0.00522	0.00146	0.00186	0.0026	0.00604	0.00133	0.00185	0.00472
298.15 K	0.00338	0.00275	0.00649	0.00184	0.00236	0.00328	0.0076	0.00168	0.00236	0.00587
303.15 K	0.00422	0.00343	0.00792	0.00229	0.00296	0.00406	0.00934	0.00211	0.00296	0.00714
308.15 K	0.00518	0.00428	0.00975	0.00285	0.00371	0.00501	0.0115	0.00263	0.00372	0.00877
313.15 K	0.00638	0.00528	0.0119	0.00353	0.00462	0.00618	0.0139	0.00326	0.00464	0.0108
318.15 K	0.0078	0.00651	0.0145	0.00434	0.00573	0.00756	0.017	0.004	0.00575	0.013
323.15 K	0.00948	0.008	0.0176	0.0053	0.00711	0.00919	0.0207	0.00494	0.00712	0.0157
328.15 K	0.0115	0.00977	0.0211	0.00644	0.00873	0.0112	0.025	0.00603	0.00875	0.0189
333.15 K	0.0139	0.0119	0.0252	0.00782	0.0106	0.0136	0.0298	0.00736	0.0107	0.0225
